Data from ChEMBL document CHEMBL1201862, “PubChem BioAssay data set” (2004).
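Step 1: Grow cells in 96-well plates. Step 2: Expose to compound for 48 hours at 5 concentrations. Step 3: Interpolate endpoints linearly; if unreached, use highest concentration. GI50 = concentration required for 50% inhibition of growth.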 Active and inactive are the calls of the source. Cut-off read from the data, not from the text of the source: active = GI50 up to about 1.1 µM and inactive = higher.

Experiments:
Test in all cases: DTP human tumour cell line panel, 48 h
786-0 = tested on: 786-0
ACHN = tested on: ACHN
EKVX = tested on: EKVX
IGROV-1 = tested on: IGROV-1
LOX IMVI = tested on: LOX IMVI
MDA-MB-231 = tested on: MDA-MB-231
Malme-3M = tested on: Malme-3M
NCI-H522 = tested on: NCI-H522
NCI/ADR-RES = tested on: NCI/ADR-RES
OVCAR-4 = tested on: OVCAR-4
OVCAR-5 = tested on: OVCAR-5
PC-3 = tested on: PC-3
SK-MEL-28 = tested on: SK-MEL-28
SNB-19 = tested on: SNB-19
SR = tested on: SR
U-251 = tested on: U-251
UACC-257 = tested on: UACC-257
UO-31 = tested on: UO-31
BT-549 = tested on: BT-549
MCF7 = tested on: MCF7

Measured: GI50

O=C(N=C1N(c2ccccc2)C(=O)C(=O)N1c1ccccc1)c1ccccc1
inactive: 786-0 3.68 µM | ACHN 3.78 µM | EKVX 12.7 µM | IGROV-1 10.5 µM | LOX IMVI 3.78 µM | MDA-MB-231 6.9 µM | Malme-3M 17.4 µM | NCI-H522 1.66 µM | NCI/ADR-RES 11 µM | OVCAR-4 2.95 µM | OVCAR-5 27.5 µM | PC-3 14.7 µM | SK-MEL-28 17.5 µM | SNB-19 13.3 µM | SR 7.46 µM | U-251 11.7 µM | UACC-257 29.9 µM | UO-31 14.5 µM

O=C1c2cccc(NCCNCCO)c2C(=O)c2cccc(NCCNCCO)c21
active: 786-0 0.665 µM | LOX IMVI 0.272 µM | MCF7 0.39 µM | NCI-H522 0.312 µM | OVCAR-4 0.889 µM | PC-3 0.733 µM | SNB-19 0.897 µM | SR 0.519 µM | U-251 0.792 µM
inactive: ACHN 2.55 µM | BT-549 2.96 µM | EKVX 1.78 µM | IGROV-1 1.56 µM | Malme-3M 1.82 µM | NCI/ADR-RES 10.9 µM | OVCAR-5 1.53 µM | SK-MEL-28 1.71 µM | UACC-257 3.04 µM | UO-31 4.72 µM

Sc1nn2c(COc3ccc(Cl)cc3)nnc2s1
inactive: 786-0 > 100 µM | ACHN > 100 µM | EKVX > 100 µM | IGROV-1 > 100 µM | MCF7 > 100 µM | MDA-MB-231 > 100 µM | Malme-3M > 100 µM | NCI-H522 > 100 µM | NCI/ADR-RES > 100 µM | OVCAR-4 > 100 µM | OVCAR-5 > 100 µM | PC-3 > 100 µM | SK-MEL-28 > 100 µM | SNB-19 > 100 µM | SR > 100 µM | U-251 > 100 µM | UACC-257 > 100 µM | UO-31 > 100 µM

COC(=O)C1(O)CC(=O)CCC1c1ccc(OC)cc1 (stereo not drawn)
inactive: 786-0 > 100 µM | ACHN > 100 µM | EKVX > 100 µM | IGROV-1 > 100 µM | LOX IMVI > 100 µM | Malme-3M > 100 µM | NCI-H522 > 100 µM | OVCAR-4 > 100 µM | OVCAR-5 > 100 µM | SK-MEL-28 > 100 µM | SNB-19 > 100 µM | SR > 100 µM | U-251 > 100 µM | UACC-257 > 100 µM | UO-31 > 100 µM

O[C@H]1[C@H](O)[C@@H](O)CN2CC[C@H](O)[C@H]12 [CASTANOSPERMINE]
inactive: EKVX > 100 µM | IGROV-1 > 100 µM | LOX IMVI > 100 µM | MCF7 > 100 µM | Malme-3M > 90.6 µM | NCI-H522 > 100 µM | NCI/ADR-RES > 100 µM | OVCAR-4 > 86.7 µM | OVCAR-5 > 100 µM | SK-MEL-28 > 100 µM | SNB-19 > 100 µM | U-251 > 100 µM | UACC-257 > 100 µM | UO-31 > 94.4 µM

CCC(C(=O)O)c1ccc(OCc2ccccc2)cc1 (stereo not drawn)
inactive: ACHN > 100 µM | EKVX > 100 µM | IGROV-1 > 100 µM | LOX IMVI > 100 µM | Malme-3M > 100 µM | NCI-H522 > 100 µM | OVCAR-4 > 100 µM | OVCAR-5 > 100 µM | SK-MEL-28 > 100 µM | SNB-19 > 100 µM | SR > 100 µM | U-251 > 100 µM | UACC-257 > 100 µM | UO-31 21.5 µM

COc1c(OC(C)=O)ccc(/C=C2\N=C(C)OC2=O)c1[N+](=O)[O-]
inactive: 786-0 > 100 µM | ACHN > 100 µM | IGROV-1 > 100 µM | LOX IMVI > 100 µM | Malme-3M > 100 µM | NCI-H522 > 100 µM | OVCAR-4 > 100 µM | OVCAR-5 > 100 µM | SNB-19 > 100 µM | SR > 100 µM | U-251 > 100 µM | UACC-257 > 100 µM | UO-31 > 100 µM

Cc1ccc(NC(=O)C(=O)CC(=O)c2c(C)[n+]([O-])c3ccccc3[n+]2[O-])cc1C
inactive: 786-0 > 100 µM | ACHN > 100 µM | EKVX > 100 µM | IGROV-1 > 100 µM | LOX IMVI > 100 µM | Malme-3M > 100 µM | NCI-H522 66.2 µM | OVCAR-4 > 100 µM | OVCAR-5 > 100 µM | SK-MEL-28 > 100 µM | SNB-19 47.3 µM | SR 33.5 µM | U-251 > 100 µM | UACC-257 > 100 µM | UO-31 > 100 µM

COc1ccc(NC(=O)/C(Cc2cc(=O)oc3cc(O)ccc23)=N\NC(C)(C)C)c(OC)c1
inactive: 786-0 > 100 µM | ACHN > 100 µM | EKVX 12.6 µM | IGROV-1 > 100 µM | LOX IMVI > 100 µM | Malme-3M > 100 µM | NCI-H522 > 100 µM | OVCAR-4 > 100 µM | OVCAR-5 > 100 µM | SK-MEL-28 > 100 µM | SNB-19 > 100 µM | SR > 100 µM | U-251 > 100 µM | UACC-257 > 100 µM | UO-31 > 100 µM

Cc1cc2ncn(-c3nc4ccccc4nc3C(C#N)S(C)(=O)=O)c2cc1C (stereo not drawn)
inactive: 786-0 > 100 µM | ACHN > 100 µM | EKVX > 100 µM | IGROV-1 > 100 µM | LOX IMVI > 100 µM | Malme-3M > 100 µM | NCI-H522 > 100 µM | OVCAR-4 > 100 µM | OVCAR-5 > 100 µM | SK-MEL-28 > 100 µM | SNB-19 > 100 µM | SR > 100 µM | U-251 > 100 µM | UACC-257 > 100 µM | UO-31 > 100 µM

CN(C)CCCn1c2c3ccccc3ccc2c2oc(=O)c3ccccc3c21
inactive: 786-0 2.64 µM | ACHN 6.79 µM | BT-549 > 40.6 µM | EKVX 12.7 µM | IGROV-1 7.93 µM | LOX IMVI 4.63 µM | MCF7 7.19 µM | Malme-3M 7.64 µM | NCI-H522 3.52 µM | NCI/ADR-RES 10.8 µM | OVCAR-4 6.38 µM | OVCAR-5 32.6 µM | SK-MEL-28 7.46 µM | SNB-19 5.96 µM | U-251 3.26 µM | UACC-257 8.65 µM | UO-31 3.44 µM
active: SR 0.914 µM

O=C(c1ccco1)N(C(=S)N1CCN(c2ccccn2)CC1)c1ccccc1
inactive: 786-0 > 100 µM | ACHN > 100 µM | IGROV-1 > 100 µM | LOX IMVI > 100 µM | Malme-3M > 100 µM | NCI-H522 > 100 µM | OVCAR-4 > 100 µM | OVCAR-5 > 100 µM | SK-MEL-28 > 100 µM | SNB-19 > 100 µM | SR > 100 µM | U-251 > 100 µM | UACC-257 > 100 µM | UO-31 88.7 µM

COc1ccc(-c2oc3cc(O)cc(O)c3c(=O)c2OC)cc1 [ERMANIN]
inactive: ACHN 24.3 µM | EKVX 51.2 µM | IGROV-1 28.3 µM | LOX IMVI 38.2 µM | MCF7 38.5 µM | MDA-MB-231 31.8 µM | Malme-3M 38.8 µM | NCI-H522 2.48 µM | NCI/ADR-RES 27.2 µM | OVCAR-4 44.6 µM | OVCAR-5 > 100 µM | PC-3 31 µM | SK-MEL-28 27 µM | SNB-19 32.7 µM | SR 19.5 µM | U-251 18 µM | UACC-257 59.8 µM | UO-31 21.6 µM

CCN(CC)CCNC(=O)c1ccc([N+](=O)[O-])cc1OC
inactive: 786-0 > 100 µM | ACHN > 100 µM | EKVX > 100 µM | IGROV-1 > 100 µM | LOX IMVI > 100 µM | Malme-3M > 100 µM | NCI-H522 > 100 µM | OVCAR-4 > 100 µM | OVCAR-5 > 100 µM | SK-MEL-28 > 100 µM | SNB-19 > 100 µM | SR > 100 µM | U-251 > 100 µM | UACC-257 > 100 µM | UO-31 > 100 µM

COc1c2c3c4c(c(OC)c(=O)c5c(O)cc(OC)c(c6c(OC)cc(O)c(c1=O)c63)c54)C(C(C)O)C2C(C)=O (stereo not drawn)
active: 786-0 0.61 µM | ACHN 0.497 µM | EKVX 0.482 µM | IGROV-1 0.445 µM | LOX IMVI 0.244 µM | MCF7 0.603 µM | MDA-MB-231 0.741 µM | Malme-3M 0.448 µM | NCI-H522 0.171 µM | NCI/ADR-RES 0.296 µM | OVCAR-4 0.46 µM | OVCAR-5 0.603 µM | PC-3 0.26 µM | SK-MEL-28 0.189 µM | SNB-19 0.264 µM | SR 0.178 µM | U-251 0.299 µM | UACC-257 0.521 µM | UO-31 0.325 µM

Cc1ccccc1NC(=O)C1C(=O)N(c2ccccc2C)C(=O)/C1=N\NC(N)=O (stereo not drawn)
inactive: 786-0 > 100 µM | ACHN > 100 µM | EKVX > 100 µM | IGROV-1 > 100 µM | Malme-3M > 100 µM | NCI-H522 > 100 µM | OVCAR-4 > 100 µM | OVCAR-5 > 100 µM | SK-MEL-28 > 100 µM | SNB-19 > 100 µM | SR > 100 µM | U-251 > 100 µM | UACC-257 > 100 µM | UO-31 > 100 µM

Cn1c(-c2ccccc2)cc(-c2cccs2)c1-c1cccs1
inactive: EKVX 34.2 µM | IGROV-1 > 100 µM | LOX IMVI 52 µM | MCF7 24 µM | Malme-3M > 100 µM | NCI-H522 > 64.6 µM | NCI/ADR-RES > 100 µM | OVCAR-4 > 96.4 µM | OVCAR-5 > 100 µM | SK-MEL-28 > 100 µM | SNB-19 > 100 µM | U-251 > 100 µM | UACC-257 > 35.4 µM | UO-31 > 100 µM
